# Experimental data from patent publication US20170319562A1, “Compositions and Methods for Extended Therapy with Aminopyridines” (Acorda Therapeutics, Inc., priority 2009, published 2017).
# Several values for one entry are separate records, joined by “and”; a condition that tells them apart may be missing. Equal values may be shown once.
# Columns and labels:
# [1] = tested on: patients with multiple sclerosis; experiment: MS-F203EXT open-label extension study; assay type: in vivo, human; settings: for patients classified as Extension Timed Walk Responders: cut-off Jul. 31, 2008
# Description: (§1) Data were presented by study pair (parent and extension).
# In the MS-F203EXT study, which allowed patients to enroll directly from the parent study MS-F203, open-label 4-aminopyridine-SR 10 mg b.i.d. was dispensed at visit 0 (a separate screening visit was only required if the screening visit could not be combined with the Final visit for MS-F203); visit 1 was scheduled to occur two weeks after visit 0, visit 2 at 12 weeks after visit 1, visit 3 at 12 weeks after visit 2. The planned interval between subsequent visits was 26 weeks. Therefore, at visit 4, a patient should have been on 4-aminopyridine-SR treatment for approximately one year.
# (§2) This Example considers efficacy data collected from the three ongoing, open label extension studies (MS-F202EXT, MS-F203EXT, MS-F204EXT). The primary focus was the Timed 25-Foot Walk, assessed in a manner consistent with its evaluation in the parent double-blind studies. This included the determination of response to treatment using a criterion equivalent to the Timed Walk Response criterion used in the parent studies. […] The clinical meaningfulness of this criterion was evaluated in terms of the Subject and Clinician Global Impression scores recorded during the extension studies.
# (§3) In the extension studies, a “Timed Walk Extension Responder” was defined as a patient who achieved a faster walking speed on the T25FW for the majority of on-drug treatment visits during the first year of the study (Visits 1-4 for MS-F203EXT and MS-F204EXT) than the maximum walking speed previously measured for the patient during any off-drug visits in either the parent study or in the extension study.
# [2] = tested on: patients with multiple sclerosis; experiment: MS-F204EXT open-label extension study; assay type: in vivo, human; settings: cut-off Jul. 31, 2008
# Description: as §1
# In the MS-F204EXT study, which allowed patients to enroll directly from the parent study MS-F204, open label 4-aminopyridine-SR 10 mg b.i.d. was dispensed at visit 0 (a separate screening visit was only required if the screening visit could not be combined with the Final visit for MS-F204); visit 1 was scheduled to occur two weeks after screening visit (or visit 0), visit 2 at 12 weeks after visit 1, visit 3 at 12 weeks after visit 2. The planned interval between subsequent visits was 26 weeks. Therefore, at visit 4, a patient should have been on 4-aminopyridine-SR treatment for approximately one year.
# as §2, §3
# [3] = tested on: patients with multiple sclerosis; experiment: MS-F204 Phase 3 double-blind placebo-controlled study
# Description: Each of two Phase 3 studies (MS-F203 and MS-F204) was a parallel group, randomized, double-blind study comparing 4-aminopyridine-SR 10 mg b.i.d. with placebo. […] The 12-item Multiple Sclerosis Walking Scale and the Subject Global Impression and Clinician Global Impression were used to validate the clinical meaningfulness of the Timed-Walk response criterion. Secondary efficacy variables included walking speed, Lower Extremity Manual Muscle Test (LEMMT) score and the Ashworth spasticity score, the latter two averaged across eight and six lower extremity muscle groups, respectively. Duration of double-blind treatment on which efficacy was based was 14 weeks in the first study and 8 weeks in the second study. A two-week single blind placebo run-in period preceded the double-blind period.
# In the MS-F204 study, the primary efficacy variable was also Responder status, based on consistent improvement in walking speed on the T25FW. A Timed-Walk Responder was defined as a patient with a faster walking speed for at least three of the first four double-blind visits as compared to the maximum walking speed for any of the pre-treatment visits and the post-treatment visit.
# The secondary efficacy variable was average change from baseline in LEMMT score during the double-blind period, comparing 4-aminopyridine-treated Timed-Walk Responders and Non-Responders separately against the placebo-treated group. Other measures, the MSWS-12, SGI, CGI and Ashworth score, were included only for the purposes of a pooled analysis and comparison with the results of the other two trials.
# This study in this Example was a 39 center, double-blind trial in patients with definite multiple sclerosis of any course type. Participants were randomized to 9 weeks of treatment with 4-aminopyridine (10 mg twice daily; n=120) or placebo (n=119). Response was defined as consistent improvement on the Timed 25-Foot Walk, with percentage of Timed Walk Responders (TWR) in each treatment group as the primary outcome. The last on-treatment visit provided data from 8-12 h post-dose, to examine maintenance of effect.
# Study Design. This was a randomized, double-blind, placebo-controlled trial, as depicted in FIG. 14. Patients underwent screening without receiving any study medication and eligible patients returned one week later (Visit 0, see FIG. 14). Patients then entered a two-week, single-blind, placebo run-in period; Visit 1 occurred at the end of the first week of placebo run-in and Visit 2 at the end of the second week. Patients were instructed to take one blinded tablet (supplied in appropriate quantities at each clinic visit) every 12 hours during the treatment phase.
# At Visit 2, patients were randomized equally to one of two treatment groups, sustained release 4-aminopyridine (4-aminopyridine-SR, 10 mg twice daily) or placebo, using a predetermined, computer-generated randomization schedule, blocked and stratified by treatment-site and pre-numbered treatment kits. Independent statistical, packaging and distribution contractors were used to maintain the blind for all other personnel.
# Following randomization, patients returned every two weeks for evaluation at Visits 3-6. The patients were then instructed to return in one week for Visit 7 and to arrange the timing of their last dose of study medication such that the clinic visit would allow for assessments to be made between 10 and 12 hours after this last dose was taken. Following Visit 7, patients began a two-week period of no treatment, returning for follow-up assessments at Visit 8.
# [4] = parent-study treated Timed Walk Non-Responders
# [5] = parent-study treated Timed Walk Responders
# [6] = placebo-treated in parent study
structure (smiles),measurement,setting,value
Nc1ccncc1 [4-aminopyridine],decline in walking speed from the original double-blind baseline,"[1]; Extension Timed Walk Non-Responders, end of the second year",approximately 8%
same,improvement in walking speed over the original baseline,"[1]; Extension Timed Walk Responders, Visit 6",more than 20%
same,mean walking speed faster than double-blind baseline at each extension visit,"[1]; Extension Timed Walk Responders, first year",more than 30%
same,patients classified as Extension Timed Walk Responders,[1]; all patients,24.9%
same,Extension Timed Walk Response rate within year,"[1]; double-blind Non-Responders, year 1",19.7%
same,Extension Timed Walk Response rate within year,"[1]; double-blind Non-Responders, year 2",17.5%
same,Extension Timed Walk Response rate within year,"[1]; double-blind Responders, year 1",42.9%
same,Extension Timed Walk Response rate within year,"[1]; double-blind Responders, year 2",36.1%
same,patients classified as Extension Timed Walk Responders,[1]; [4],19.7%
same,patients classified as Extension Timed Walk Responders,[1]; [5],41.4%
same,Extension Timed Walk Response rate within year,"[1]; placebo treated in parent study, year 1",16.2%
same,Extension Timed Walk Response rate within year,"[1]; placebo treated in parent study, year 2",20.8%
same,patients classified as Extension Timed Walk Responders,[1]; [6],17.7%
same,patients classified as Extension Timed Walk Responders,[2]; all patients,49.3%
same,patients classified as Extension Timed Walk Responders,[2]; [4],30.0%
same,patients classified as Extension Timed Walk Responders,[2]; [5],71.4%
same,patients classified as Extension Timed Walk Responders,[2]; [6],50.0%
same,Mantel-Haenszel Odds Ratio for Timed Walk Response vs placebo,[3]; 10 mg b.i.d.,8.14
same,Timed-Walk Responder rate,[3]; 10 mg b.i.d.,42.9%
same,plasma concentration below which there is a marked reduction in walking speed improvement,[3]; FIG. 27,below 13 ng/mL
same,plasma concentration below which there is a reduction in walking speed improvement,[3]; FIG. 27,below 15 ng/mL
same,average change from baseline in walking speed (Visits 3-6),[3]; Timed Walk Non-Responders,0.12 ft/sec
same,"average improvement in walking speed from baseline, double-blind efficacy period (Visits 3-6)","[3]; Timed Walk Non-responders, 10 mg b.i.d.",6.0%
same,average change from baseline in walking speed (Visits 3-6),[3]; Timed Walk Responders,0.51 ft/sec
same,"improvement from baseline walking speed at Visit 7, first evaluation (last on-treatment visit)",[3]; Timed Walk Responders,25.7%
same,"average improvement in walking speed from baseline, double-blind efficacy period (Visits 3-6)","[3]; Timed Walk Responders, 10 mg b.i.d.",24.7% and 25%
same,mean improvement in walking speed at Visit 7,"[3]; Timed Walk Responders, 9-10 h post dose",25.5%
same,mean improvement in walking speed at Visit 7,"[3]; Timed Walk Responders, 10-11 h post dose",25.3%
same,mean improvement in walking speed at Visit 7,"[3]; Timed Walk Responders, 11-12 h post dose",20.1% and 20%
same,reduction of average plasma concentration at the first assessment at Visit 7,"[3]; human, in vivo, 10 mg b.i.d.",approximately 25%
